Source: patent US11337970B2, “Inhibitors of indoleamine 2,3-dioxygenase and methods of their use” (BRISTOL-MYERS SQUIBB COMPANY, priority 2016, dated 2022)

Experiments:
[1] = biological target: T1, human IDO1 (Homo sapiens, UniProt P14902); experiment: IDO inhibition assay in HEK293 cells stably expressing human IDO1 (kynurenine, Ehrlich reagent); assay type: cell-based; conditions: 20 hours incubation, absorbance at 490 nm, read-out: IDO1 HEK Human IC50
T1 construct: expressed in transfected cells
T1 sequence (P14902 whole entry): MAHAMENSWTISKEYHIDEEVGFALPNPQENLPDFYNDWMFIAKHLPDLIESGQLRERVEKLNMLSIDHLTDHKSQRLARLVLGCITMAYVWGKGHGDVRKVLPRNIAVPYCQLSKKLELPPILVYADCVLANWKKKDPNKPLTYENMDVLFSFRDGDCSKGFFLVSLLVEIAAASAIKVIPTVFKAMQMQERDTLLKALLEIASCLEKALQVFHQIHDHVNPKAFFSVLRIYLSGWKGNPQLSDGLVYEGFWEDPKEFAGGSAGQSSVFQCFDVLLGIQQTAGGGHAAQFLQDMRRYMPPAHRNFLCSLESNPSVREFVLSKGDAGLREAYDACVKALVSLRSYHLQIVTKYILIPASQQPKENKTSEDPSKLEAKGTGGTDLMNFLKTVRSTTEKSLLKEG
Method: HEK293 cells were transfected with a pCDNA-based mammalian expression vector harboring human IDO1 cDNA (NM 002164.2) by electroporation. They were cultured in medium (DMEM with 10% FBS) containing 1 mg/ml G418 for two weeks. Clones of HEK293 cells that stably expressed human IDO1 protein were selected and expanded for IDO inhibition assay.
The human IDO1/HEK293 cells were seeded at 10,000 cells per 50 μL per well with RPMI/phenol red free media contains 10% FBS in a 384-well black wall clear bottom tissue culture plate (Matrix Technologies LLC) 100 nL of certain concentration of compound was then added to each well using ECHO liquid handling systems. The cells were incubated for 20 hours in 37° C. incubator with 5% CO2.
The compound treatments were stopped by adding trichloroacetic acid (Sigma-Aldrich) to a final concentration at 0.2%. The cell plate was further incubated at 50° C. for 30 minute. The equal volume supernatant (20 μL) and 0.2% (w/v) Ehrlich reagent (4-dimethylaminobenzaldehyde, Sigma-Aldrich) in glacial acetic acid were mixed in a new clear bottom 384-well plate. This plate was then incubated at room temperature for 30 minute. The absorbance at 490 nm was measured on Envision plate reader.
Compound IC50 values were calculated using the counts of 500 nM of a reference standard treatment as one hundred percent inhibition, and counts of no compound but DMSO treatment as zero percent inhibition.

[2] = biological target: T2, indoleamine 2,3-dioxygenase (IDO) (Homo sapiens, UniProt P14902); experiment: HeLa cell-based indoleamine 2,3-dioxygenase (IDO) assay (kynurenine production); conditions: HeLa cells, IFNγ 25 ng/mL, 48 hour incubation, absorbance at 480 nm
T2 construct: host or cells: HeLa cells stimulated with IFNγ (25 ng/mL)
T2 sequence (P14902 whole entry): as above

Structure (SMILES) | IC50 [1] [nM] | IC50 [2] [nM]
C[C@@H](c1nc2ccc(Cl)cc2[nH]1)[C@H]1CC[C@@H](c2ccnc3ccc(F)cc32)CC1 [Example 2, 4-((cis)-4-((R)-1-(6-chloro-1H-benzo[d]imidazol-2-yl)ethyl)cyclohexyl)-6-fluoroquinoline] | 1.8 | 1.1
CC[C@H](c1nc2ccc(Cl)cc2[nH]1)[C@H]1CC[C@@H](c2ccnc3ccc(F)cc32)CC1 (single isomer, unassigned) [Example 15-4, 4-(4-(1-(6-chloro-1H-benzo[d]imidazol-2-yl)propyl)cyclohexyl)-6-fluoroquinoline] | 6.6 | 9.5
CC[C@H](c1nc2ccc(Cl)cc2[nH]1)[C@H]1CC[C@@H](c2ccnc3ccc(F)cc32)CC1 (single isomer, unassigned) [Example 15-3, 4-(4-(1-(6-chloro-1H-benzo[d]imidazol-2-yl)propyl)cyclohexyl)-6-fluoroquinoline] | 0.7 | 3.5
C[C@@H](c1nc2ccccc2[nH]1)[C@H]1CC[C@@H](c2ccnc3ccc(F)cc32)CC1 [Example 1, 4-((cis)-4-((R)-1-(1H-benzo[d]imidazol-2-yl)ethyl)cyclohexyl)-6-fluoroquinoline] | 5.2 | 4.7
C[C@@H](c1nc2ccc(F)cc2[nH]1)[C@H]1CC[C@@H](c2ccnc3ccc(F)cc32)CC1 [Example 3, 6-fluoro-4-((cis)-4-((R)-1-(6-fluoro-1H-benzo[d]imidazol-2-yl)ethyl)cyclohexyl)quinoline] | 2.7 | 1.5
C=CC[C@@H](c1nc2ccc(Cl)cc2[nH]1)[C@H]1CC[C@@H](c2ccnc3ccc(F)cc32)CC1 [Example 32, 4-((1S,4s)-4-((R)-1-(6-chloro-1H-benzo[d]imidazol-2-yl)but-3-en-1-yl)cyclohexyl)-6-fluoroquinoline] | 2 | 2.8
CC(c1nc2ccc(Cl)cc2[nH]1)C1CCC(c2ccnc3ccccc23)CC1 (single isomer, unassigned) [Example 16-2, (±)-4-(4-(1-(6-chloro-1H-benzo[d]imidazol-2-yl)ethyl)cyclohexyl)quinoline] | 4.5 | 5.7
